The text below walks through data of publication PMC11272978, “Exploring the central region of amylin and its analogs aggregation: the influence of metal ions and residue substitutions” (Frontiers in Chemistry, 2024).

A word on the cell viability: it is a read-out of living cells in per cent, often relative to untreated cells.

Entries after “also recorded” stand apart in the source; their conditions may differ. No end group written: not given here.

The nature of series [1]: Thioflavin-T (ThT) aggregation assay. It counts as physicochemical. As to conditions: 40 μM peptide, 20 μM ThT, 50 mM phosphate buffer pH 7.4, 25°C; for ThT fluorescence intensity (aggregation), peptide alone: ex 485/20, em 528/20 nm, read each 5 min; for ThT fluorescence intensity (aggregation) with Cu(II): Cu(II) (Cu(NO3)2) 1:1; for ThT fluorescence intensity (aggregation) with Zn(II): Zn(II) (ZnCl2) 1:1. The protocol:
(§1) Preparation of IAPP fragments solutions and thioflavin-T aggregation assays were performed as described earlier ([Alghrably et al., 2020]). In brief, IAPP fragments were dissolved in 50 mM phosphate buffer to concentrations of 1 mM. Stock solutions were diluted to the desired concentrations, and samples were used fresh each time. It is important to mention that due to the observation of turbidity after dissolving hIAPP-F and Pramlintide-M, both peptides were sonicated for 25 min. All of the aggregation reactions were conducted at 25°C with 40 μM IAPP fragments/mutants (final concentration) in 50 mM phosphate buffer (pH 7.4), and 20 μM thioflavin T in a final volume of 200 μL in each of the 96-well flat-bottom black plate (Corning 3915). We tested the aggregation of each IAPP fragment/mutants alone and with the addition of two metal ions Cu(II) and Zn(II). The metal ions were added to the IAPP fragments in 1:1 ratio. The plate was sealed with transparent film (Duck Brand Crystal Clear Tape, Avon, OH). Thioflavin T fluorescence emission at 528/20 nm (excitation at 485/20) was monitored on a Cytation 5 Multi-Mode Microplate. The measurements were collected by top reading each 5 min after a 3 s shake with an extended gain.

The nature of series [2]: 1D 1H NMR signal intensity over time (aggregation). In kind it is physicochemical. The following applies: 310 K, over 44 hours; for NMR signal intensity over time (signal loss = aggregation), peptide alone: D2O with 20 mM phosphate buffer pH 7.4, 1.5 mM peptide (100 μM for hIAPP-F and Pramlintide-M). As for the experimental part: All peptides (except hIAPP-F and Pramlintide-M) were dissolved in 99.8% deuterium oxide containing 20 mM of phosphate buffer (pH 7.4). All samples contained 1.5 mM peptide concentration in 600 μL of sample volume except for hIAPP-F and Pramlintide-M, for which the final concentration was 100 μM (both peptides have a high tendency to aggregate at room temperature). The samples’ pH was manually adjusted to 7.4 with 0.1 M NaOD stock solution in 100% D2O. These samples were used for the ^1H and ^13C resonances assignment based on 2D spectra: ^1H-^13C HSQC ([Bodenhausen and Ruben, 1980]) tuned for the aliphatic region, HSQC-TOCSY ([Koz´min´ski and Koz´min´ski, 1999]), ^1H-^1H TOCSY ([Braunschweiler and Ernst, 1983]) mixing time 20 ms and 80 ms, ^1H-^1H ROESY ([Davis, 1985]) mixing time 300 ms and 500 ms. During the hIAPP-F and Pramlintide-M sample preparation, a temperature of 90°C was used to dissolve the peptides. After that, both samples were sonicated during the cooling down process to obtain a homogeneous solution. Spectra were measured immediately after sample preparation. The samples with the addition of metal ions were prepared with the same method as the samples of high tendency aggregation peptides hIAPP-F and Pramlintide-M.
All experiments were performed at a temperature of 310 K. The NMR spectra were acquired on spectrometers of 950, 800, and 700 MHz Bruker Avance NEO equipped with cryogenic TCI probes: • rIAPP-F, hIAPP-F, Pramlintide-M: 700 MHz, ^1H frequency = 700.21 MHz, ^13C frequency = 176.07 MHz • rIAPP-M: 800 MHz, ^1H frequency = 800.18 MHz, ^13C frequency = 201.21 MHz • Pramlintide-F, hIAPP-M: 950 MHz, ^1H frequency = 950.30 MHz, ^13C frequency = 238.96 MHz

The nature of series [3]: Atomic force microscopy (AFM) of fibrils. In kind it is physicochemical. The protocol:
AFM imaging was conducted in a 256-scanning line at a 1 Hz scanning rate by using Bruker’s Nano Dimension Icon (Bruker Nano Inc., Germany). In this procedure, 200–300 μM hIAPP-F and Pramlintide-M were incubated with and without selected metal ions at 25°C for 24 h. All the samples were dissolved in 50 mM phosphate buffer (pH 7.4). The height of peptide aggregates was obtained from its section tool through Nano Scope Analysis 1.5, and the line position with average effects in the images was selected, except peptides alone in fibril form.

For the next series, the system named is HeLa cells. Description: CCK-8 cytotoxicity assay. It counts as cell-based, human. As for the experimental part:
The cytotoxicity of the different peptides (rIAPP-F, hIAPP-F, Pramlintide-F, hIAPP-M, rIAPP-M, Pramlintide-M, and hIAPP) was tested using CCK-8 assay according to the manufacturer’s protocol. Briefly, cervical carcinoma cells (HeLa) were seeded into 96 well plates 8 × 10^3 cells/well in 100 µL DMEM culture medium with 10% FBS and 1% Penicillin-Streptomycin and incubated in a 5% CO2 incubator at 37°C overnight. After that, the cells were incubated with the different peptides prepared in deionized water at concentrations (200, 400, 600, and 800 μg/mL) for 24 h. In addition, the cytotoxicity of hIAPP-F and Pramlintide-M prepared in 0.5 mg/mL Cu(NO3)2 and ZnCl2 solutions at the same concentrations (200, 400, 600, and 800 μg/mL) was also tested. Cells without any treatment were used as a control, and all the conditions were done in triplicates. After 24 h, the media was discarded from the plate, and cells were washed with PBS. Then, 10 µL of CCK-8 and 90 µL of fresh DMEM media were added to each well and incubated for 4 h. The absorbance was measured at OD = […] using a microplate spectrophotometer (BioRad-xMark Microplate Absorbance Spectrophotometer). The ratio of the absorbance at 570/605 was calculated, and the average absorbance value of wells without cells was considered as blank and subtracted from all wells to cancel the background noise. The cells without any treatment were used as a control, and their mean value was considered 100% viable. The other treated cells’ viability was calculated using the formula: Cells viability % = (Corrected Mean Absorbance of treated cells)/(Corrected Mean Absorbance of control) ×100.

Series [4] can be described thus: Turbidity on dissolving the peptide. In kind it is physicochemical. The following applies: dissolved in 50 mM phosphate buffer to 1 mM; observation; peptides then sonicated for 25 min. The protocol:
as §1

Setting [5] is: 200 µM peptide alone, phosphate buffer pH 7.4, 25°C, 24 h, cross-section profile.
[6] abbreviates: 200 µM peptide, phosphate buffer pH 7.4, 25°C, 24 h.
Where [7] appears, read: peptide:Cu(II) 1:1, 200 µM, phosphate buffer pH 7.4, 24 h.

For the molecule “SNNLGPVLPP [rIAPP-F, fragment derived from rat amylin, central region]”, in series [1], the “ThT fluorescence intensity (aggregation), peptide alone” value was “did not show any increase in the fluorescence intensity”; the “ThT fluorescence intensity (aggregation) with Cu(II)” value is reported as “neither metal ions Cu(II) nor Zn(II) have any influence on the aggregation rate”; the “ThT fluorescence intensity (aggregation) with Zn(II)” value was “neither metal ions Cu(II) nor Zn(II) have any influence on the aggregation rate”. The “NMR signal intensity over time (signal loss = aggregation), peptide alone” value in series [2] is recorded as “no signal loss was observed over time”.
With “SNNLGPILPP [rIAPP-M, custom-designed mutated fragment of rat amylin]”, in series [1], the “ThT fluorescence intensity (aggregation), peptide alone” value is listed as “no increase in fluorescence intensity; also recorded: did not show any increase in the fluorescence intensity”; the “ThT fluorescence intensity (aggregation) with Cu(II)” value is “neither metal ions Cu(II) nor Zn(II) have any influence on the aggregation rate”; the “ThT fluorescence intensity (aggregation) with Zn(II)” value is listed as “neither metal ions Cu(II) nor Zn(II) have any influence on the aggregation rate”. In series [2], the “NMR signal intensity over time (signal loss = aggregation), peptide alone” value is “no signal loss was observed over time”.
With “SNNFGPILPP [Pramlintide-F, fragment derived from pramlintide, central region]”, in series [1], the “ThT fluorescence intensity (aggregation), peptide alone” value is “no increase in fluorescence intensity; also recorded: did not show any increase in the fluorescence intensity”; the “ThT fluorescence intensity (aggregation) with Cu(II)” value is “neither metal ions Cu(II) nor Zn(II) have any influence on the aggregation rate”; the “ThT fluorescence intensity (aggregation) with Zn(II)” value is “neither metal ions Cu(II) nor Zn(II) have any influence on the aggregation rate”. In series [2], the “NMR signal intensity over time (signal loss = aggregation), peptide alone” value is on record as “no signal loss was observed over time”.
With “SNNFGAILPP [hIAPP-M, custom-designed mutated fragment of human amylin, last two serins mutated with prolines]”, in series [1], the “ThT fluorescence intensity (aggregation), peptide alone” value is on record as “no increase in fluorescence intensity; also recorded: did not show any increase in the fluorescence intensity”; the “ThT fluorescence intensity (aggregation) with Cu(II)” value was “neither metal ions Cu(II) nor Zn(II) have any influence on the aggregation rate”; the “ThT fluorescence intensity (aggregation) with Zn(II)” value was “neither metal ions Cu(II) nor Zn(II) have any influence on the aggregation rate”. For the same molecule, in series [2], the “NMR signal intensity over time (signal loss = aggregation), peptide alone” value is recorded as “no signal loss was observed over time”.
On to `CC[C@H](C)[C@H](NC(=O)[C@H](C)NC(=O)CNC(=O)[C@H](Cc1ccccc1)NC(=O)[C@H](CC(N)=O)NC(=O)[C@H](CC(N)=O)NC(=O)[C@H](CO)NC(=O)[C@H](CO)NC(=O)[C@H](Cc1c[nH]cn1)NC(=O)[C@@H](NC(=O)[C@H](CC(C)C)NC(=O)[C@H](Cc1ccccc1)NC(=O)[C@H](CC(N)=O)NC(=O)[C@H](C)NC(=O)[C@H](CC(C)C)NC(=O)[C@H](CCCNC(=N)N)NC(=O)[C@H](CCC(N)=O)NC(=O)[C@@H](NC(=O)[C@H](C)NC(=O)[C@@H]1CSSC[C@H](NC(=O)[C@@H](N)CCCCN)C(=O)N[C@@H](CC(N)=O)C(=O)N[C@@H]([C@@H](C)O)C(=O)N[C@@H](C)C(=O)N[C@@H]([C@@H](C)O)C(=O)N1)[C@@H](C)O)C(C)C)C(=O)N[C@@H](CC(C)C)C(=O)N[C@@H](CO)C(=O)N[C@@H](CO)C(=O)N[C@H](C(=O)N[C@@H](CC(N)=O)C(=O)N[C@H](C(=O)NCC(=O)N[C@@H](CO)C(=O)N[C@@H](CC(N)=O)C(=O)N[C@H](C(=O)N[C@@H](Cc1ccc(O)cc1)C(N)=O)[C@@H](C)O)C(C)C)[C@@H](C)O` [hIAPP], for which, in series [3] (setting [5]), the “diameter of helical fibrils (AFM)” value was 5–6 nm and the “diameter of ribbon fibrils (AFM)” value is on record as “around 2 nm”. Besides, the “fibril length (AFM), some fibrils, peptide alone” value in series [3] (200 µM peptide alone, phosphate buffer pH 7.4, 24 h, fibrils vary in length) is recorded as more than 2 µm. Moreover, in series [3] (setting [6]), the “fibril morphology (AFM), peptide alone” value is “relatively short worm-like fibrils”. For the same molecule, in series [3] (setting [7]), the “average fibril length (AFM) with Cu(II)” value is “less than 2 µm”, the “fibril diameter (AFM) with Cu(II)” value is recorded as 2–3 nm and the “fibril morphology (AFM) with Cu(II)” value is given as “unique looping structure”. In addition, in the series on HeLa cells (HeLa cells, 200, 400, 600 and 800 μg/mL, 24 h, CCK-8, n = 3), the “effect on cell viability, peptide alone” value is recorded as “highest level of toxicity”. Also, the “cell viability at 400 μg/mL” value in the series on HeLa cells (HeLa cells, 24 h, CCK-8, peptide in deionized water, triplicates) amounted to 0%.
Consider SNNFGAILSS [hIAPP-F], for which, in series [1], the “time to reach saturation phase (ThT), peptide alone” value is given as approximately 2.5 h; the “ThT fluorescence intensity (aggregation) with Cu(II)” value is “completely inhibited the aggregation”; the “ThT fluorescence intensity (aggregation) with Zn(II)” value is “increased the fluorescence intensity”. In addition, the “time to reach saturation phase (ThT) with Zn(II)” value in series [1] (Zn(II) 1:1) is approximately 2.5 h. The “fibril morphology (AFM), peptide alone” value in series [3] (setting [6]) was “twisted fibril”. In addition, the “fibril diameter (AFM), peptide alone” value in series [3] (200 µM peptide, phosphate buffer pH 7.4, 25°C, 24 h, profile analysis) is “approximately 6 nm”. For the same molecule, the “fibril diameter (AFM) with Zn(II)” value in series [3] (peptide:Zn 1:1, 200 µM, phosphate buffer pH 7.4, 24 h) is “same diameter as the matured helical-structured fibrils”. The “NMR signal intensity deterioration with Zn(II)” value in series [2] (100 μM peptide, pH 7.4, with Zn(II)) is reported as “occurred faster in the presence of Zn(II)”. Further, the “NMR signal intensity over time (signal loss = aggregation), peptide alone” value in series [2] was “decreased over time”. In addition, in the series with HeLa cells (HeLa cells, 24 h, CCK-8, peptide in deionized water, highest concentration tested, triplicates), the “cell viability at 800 μg/mL” value is 60%. For the same molecule, the “cell viability, peptide-Cu(II) complex” value in the series on HeLa cells (HeLa cells, peptide 200-800 μg/mL prepared in 0.5 mg/mL Cu(NO3)2, 24 h, CCK-8, n = 3) is “high cell viability”. Besides, the “cell viability / proliferation, peptide with Zn(II)” value in the series on HeLa cells (HeLa cells, peptide 200-800 μg/mL prepared in 0.5 mg/mL ZnCl2, 24 h, CCK-8, n = 3) is reported as “high cell proliferation rate”. In series [4], the turbidity after dissolving result was “turbidity”.
